Results as given in patent US20230399608A1, “PROCESS FOR ESTABLISHING A HUMAN TESTICULAR TISSUE CULTURE SYSTEM” (PATERNA BIOSCIENCES INC., priority 2021, published 2023).

How the values were obtained:
[1] = test system: proliferating germ cells in cultured testicular tissue; assay: Inhibitor screen in cultured testicular tissue: EdU+ cells per unit area relative to best prior condition; type: cell-based, human; conditions: for EdU+/area (um2) to condition 2: ratio of EdU+ cells per unit area in test condition to condition 2, inhibitor at concentration listed in Table 12
Text: In this study, the HIF-1a, apoptosis, inflammation, ROS, and angiogenesis pathways were primarily targeted to help maintain testicular somatic cell function and promote germ cell proliferation. The level of proliferation was quantified by calculating the number of Edu+ cells (EdU stains the cells that are in the process of replication) per unit area (in μm^2) in each condition and using the ratio of this parameter in the test condition to a previously identified best condition to quantify the effect of the tested condition.

[2] = test system: testicular tissue comprising tubules and germ cells; assay: Human testicular tissue culture: morphology and germ cell proliferation (EdU/DDX4); type: cell-based
Text: Tissue preparation: Whole testes are removed from cadaveric organ donors by DonorConnect staff, which are picked up by Utah team and transported to research lab on ice. Testicular tissues are cut by 3-5 mm by dimeter in size using surgical scissors and tweezers.
Culture media preparation: the base media is αMEM+10% KSR. We first tested various small molecular inhibitors/ligands with different concentrations in the base media to culture testicular tissues.
Tissue culture: Place three pieces of testicular tissue into one well of a 6-well plate with 2 ml of media in each well. The tissue should be fully immersed in media. Place the plate at 34° C. in 5% CO2 in an incubator with culture media changed every other day.
Morphology examination: Measure the sizes of the cultured testicular tissues at different time points, including Day 1, Day 7, Day 14, and Day 21. And then fix the sample for H&E staining.
Germ cell proliferation examination: Add Edu (2 ul into each well) at different time points at Day 0, Day 6, Day 13, Day 20. Harvest the tissue 24 hours later for the germ cell proliferation test. Samples are washed three times by PBS and digested to isolated tubules by collagenase type IV at 37° C. Then wash 3 times by PBS to terminate the digestion and perform whole-mount staining of the tubules with Edu and DDX4/UTF1/SYCP3.

Row | Structure (SMILES) | EdU+/area (um2) to condition 2 [1] | other results
1 | CC(C)=CCC[C@](C)(O[C@@H]1O[C@H](CO)[C@@H](O)[C@H](O)[C@H]1O)[C@H]1CC[C@]2(C)[C@@H]1[C@H](O)C[C@@H]1[C@@]3(C)CC[C@H](O)C(C)(C)[C@@H]3[C@@H](O[C@@H]3O[C@H](CO)[C@@H](O)[C@H](O)[C@H]3O[C@@H]3OC[C@@H](O)[C@H](O)[C@H]3O)C[C@]12C [Notoginsenoside R1] | 1.5 | 
2 | C[C@@H]1[C@H](O)[C@@H](C)/C=C/C=C/CC/C=C/C=C/C=C/C=C/C(O[C@H]2O[C@H](C)[C@@H](O)[C@H](N)[C@@H]2O)CC2O[C@](O)(CC(O)C(O)CCC(O)CC(O)CC(O)CC(=O)O[C@H]1C)CC(O)C2C(=O)O (some centres unmarked) [Nystatin] | 2.1 | improving germ cell proliferation ([1]; added to first culture condition, FIG. 31 / Table 12): effective at improving germ cell proliferation
3 | c1cc(CN2CCCNCCNCCCNCC2)ccc1CN1CCCNCCNCCCNCC1 [Plerixafor] | 1.4 | 
4 | O=C(Nc1ccc([N+](=O)[O-])cc1O)Nc1ccccc1Br [SB225002] | 1.7 | 
5 | C[C@]12CC[C@H]3[C@@H](CC[C@]4(O)C[C@@H](O)CC[C@]34C=O)[C@@]1(O)CC[C@@H]2C1=CC(=O)OC1 [Strophanthidin] | 2.2 | 
6 | CS[C@H]1SC[C@H]2C(=O)N(C)[C@@H](C(C)C)C(=O)OC[C@@H](NC(=O)c3cnc4ccccc4n3)C(=O)N[C@@H](C)C(=O)N(C)[C@@H]1C(=O)N(C)[C@@H](C(C)C)C(=O)OC[C@@H](NC(=O)c1cnc3ccccc3n1)C(=O)N[C@@H](C)C(=O)N2C [echinomycin, Echinomycin] |  | germ cell survival ([2]; even two weeks after start of culture): helps germ cell survival; maintenance of testicular tissue structure ([2]; inhibitor added to base culture media): helps maintain testicular tissue structure
